Data reported in patent publication US20250304608A1, “PHOSPHORUS COMPOUND AND USE THEREOF” (SHANGHAI SHIJIANG BIOTECHNOLOGY CO., LTD., priority 2022, published 2025).

Columns and labels:
[1] = test system: Daoy cell transfected with empty virus vector without carrying shRNA; test: TMRM mitochondria membrane potential in Daoy cell transfected with empty virus vector (Con shRNA); assay type: cell-based, human; conditions: H2O2 +, CsA −, untreated = 100
[2] = test system: Daoy cell transfected with virus vector carrying shRNA that induces degradation of PPIF mRNA; test: TMRM mitochondria membrane potential in Daoy cell transfected with PPIF shRNA; assay type: cell-based, human; conditions: H2O2 +, CsA −, untreated = 100
Daoy cell = test: TMRM mitochondria membrane potential in Daoy cell after CsA / H2O2 treatment; assay type: cell-based, human; conditions: untreated = 100
Excerpt: The mitochondria permeability transition pore (mPTP) was a non-specific channel on the inner membrane of mitochondria, which could allow small molecules with molecular less than 1.5KD to pass freely, and its activity was affected by peroxides (such as H2O2), pH and calcium ions in mitochondria. […] For cells with active mitochondria permeability transition pore, adding peroxide (such as H2O2) could increase the activity of mitochondria permeability transition pore, resulting in a decrease in mitochondna membrane potential.

mPTP-inactive Daoy cell = test: CellTiter-Glo cell viability inhibition, mPTP-inactive Daoy cell; assay type: cell-based; conditions: Homo sapiens, Daoy cell transfected with PPIF shRNA vector
ov-NNMT NCI-H82 cell = test: CellTiter-Glo cell viability inhibition, ov-NNMT NCI-H82 cell; assay type: cell-based; conditions: Homo sapiens, NCI-H82 cell overexpressing NNMT protein
Excerpt: (§1) The expression of NNMT protein in NCI-H82 cell was overexpressed by inserting the NNMT gene into NCI-H82 cell using a viral vector, and the NNMT protein-overexpressing NCI-H82 cell (ov-NNMT NCI-H82 cell) was obtained. The control NCI-H82 cell (Con-NCI-H82 cell) was obtained by transfecting NCI-H82 cell with empty virus vector without carrying NNMT gene. The expressing content of NNMT protein in the Con-NCI-H82 cell and ov-NNMT NCI-H82 cell was detected using Western Blot assay (as shown in FIG. 3), it could be seen from FIG. 3 that the NNMT protein was overexpressed in the ov-NNMT NCI-H82 cell compared with the expression level of NNMT protein in the Con-NCI-H82 cell.

Con-NCI-H82 cell = test: CellTiter-Glo cell viability inhibition, Con-NCI-H82 cell; assay type: cell-based; conditions: Homo sapiens, NCI-H82 cell transfected with empty virus vector
Excerpt: as §1

mPTP-active Daoy cell = test: CellTiter-Glo cell viability inhibition, mPTP-active Daoy cell; assay type: cell-based; conditions: Homo sapiens; Daoy cell transfected with empty virus vector; CellTiter-Glo; read-out: mPTP-active Daoy cell (IC50)

IC50 (ov-NNMT NCI-H82 cell)	IC50 (Con-NCI-H82 cell)	SMILES	Relative TMRM signal intensity (%), mean value [1]	Relative TMRM signal intensity (%), mean value [2]	Relative TMRM signal intensity (%) in Daoy cell, mean value (Daoy cell)	IC50 (mPTP-inactive Daoy cell)	IC50 (mPTP-active Daoy cell)
		OO [Compound H2O2, H2O2]	79%	95%	82%		
40.1 µM	13.8 µM	c1ccc([P+](c2ccccc2)(c2cccc3[nH]ncc23)c2cccc3[nH]ncc23)cc1 [AB35480]				6260 nM	> 50000 nM
4.93 µM	1.27 µM	Cn1ccc2c([P+](c3ccccc3)(c3ccccc3)c3cccc4c3cnn4C)cccc21 [AB35578]				1450 nM	3800 nM
1.43 µM	0.19 µM	Cn1ccc2cc([P+](c3ccccc3)(c3ccccc3)c3ccccc3)ccc21 [AB35571]				270 nM	1380 nM
5.32 µM	5.51 µM	[C-]#[N+]N=P(c1ccccc1)(c1ccccc1)c1ccccc1 [SJ00004]				7990 nM	9010 nM
2.13 µM	0.41 µM	c1ccc([P+](c2ccccc2)(c2cccc3[nH]ccc23)c2cccc3[nH]ncc23)cc1 [AB35482]				610 nM	3970 nM
1.95 µM	0.28 µM	c1ccc([P+](c2ccccc2)(c2cccc3[nH]ccc23)c2cccc3[nH]cnc23)cc1 [AB35572]				3340 nM	10300 nM
6.03 µM	1.55 µM	c1ccc([P+](c2ccccc2)(c2ccc3[nH]ccc3c2)c2ccc3[nH]cnc3c2)cc1 [AB35539]				3880 nM	12200 nM
2.98 µM	3.24 µM	c1ccc([P+](CC[P+](c2ccccc2)(c2ccccc2)c2ccccc2)(c2ccccc2)c2ccccc2)cc1 [SJ00003]				5180 nM	4910 nM
11 µM	2.86 µM	COc1ccc([P+](c2ccc(OC)cc2)(c2cccc3nn(C)cc23)c2cccc3nn(C)cc23)cc1 [AB36471]				1480 nM	6360 nM
18.3 µM	6.92 µM	COc1ccc([P+](c2ccc(OC)cc2)(c2cccc3nn(C)cc23)c2cccc3c2cnn3C)cc1 [AB36445]				3020 nM	13900 nM
9.22 µM	3.25 µM	Brc1c(C[P+](c2ccccc2)(c2ccccc2)c2ccccc2)[nH]c2ccccc12 [AB36542]				3680 nM	8370 nM
0.16 µM	0.17 µM	COc1ccc([P+](c2ccc(OC)cc2)(c2ccc(OC)cc2)c2cccc3c2ccn3C)cc1 [AB36411]				680 nM	520 nM
1.53 µM	0.32 µM	COc1ccc([P+](c2ccc(OC)cc2)(c2cccc3c2ccn3C)c2cccc3c2cnn3C)cc1 [AB36438]				240 nM	1030 nM
3.96 µM	0.78 µM	c1ccc([P+](c2ccccc2)(c2ccc3cc[nH]c3c2)c2ccccn2)cc1 [AB35507]				1730 nM	4080 nM
10.7 µM	3.38 µM	c1ccc([P+](c2ccccc2)(c2ccccc2)c2cccc3[nH]cnc23)cc1 [AB36504]				5120 nM	25300 nM
1.87 µM	0.38 µM	c1ccc([P+](c2ccccc2)(c2ccc3[nH]ccc3c2)c2ccc3[nH]ncc3c2)cc1 [AB35529]				880 nM	4110 nM
8.16 µM	3.97 µM	c1ccc([P+](c2ccccc2)(c2ccccc2)c2cscn2)cc1 [AB36537]				3550 nM	14400 nM
7.14 µM	2.22 µM	c1ccc([P+](c2ccccc2)(c2ccc3cc[nH]c3c2)c2ccc3nc[nH]c3c2)cc1 [AB35548]				2640 nM	8090 nM
2.32 µM	0.46 µM	c1ccc([P+](c2ccccc2)(c2ccccc2)c2cccc3sccc23)cc1 [AB36535]				370 nM	1560 nM
0.56 µM	0.05 µM	c1ccc([P+](c2ccccc2)(c2cccc3[nH]ccc23)c2cccc3[nH]ccc23)cc1 [AB35419]				150 nM	740 nM

IC50 (ov-NNMT NCI-H82 cell)	IC50 (Con-NCI-H82 cell)	SMILES	Relative TMRM signal intensity (%), mean value [1]	Relative TMRM signal intensity (%), mean value [2]	Relative TMRM signal intensity (%) in Daoy cell, mean value (Daoy cell)	IC50 (mPTP-inactive Daoy cell)	IC50 (mPTP-active Daoy cell)
3.66 µM	0.55 µM	c1ccc([P+](c2ccccc2)(c2ccc3[nH]ncc3c2)c2cccc3[nH]ccc23)cc1 [AB35580]				1160 nM	4570 nM
> 50 µM	25.3 µM	c1ccc([P+](c2ccccc2)(c2cncc3[nH]ccc23)c2cncc3[nH]ccc23)cc1 [AB35477]				10300 nM	24200 nM
1.92 µM	0.47 µM	c1ccc([P+](c2ccccc2)(c2ccccc2)c2cccc3occc23)cc1 [AB36521]				750 nM	2450 nM
12.3 µM	3.27 µM	c1ccc([P+](c2ccccc2)(c2cccnc2)c2ccc3[nH]ccc3c2)cc1 [AB35473]				2950 nM	18000 nM
5.91 µM	1.49 µM	COc1ccc([P+](c2ccc(OC)cc2)(c2ccnc3c2ccn3C)c2cccc3c2cnn3C)cc1 [AB36449]				570 nM	2160 nM
3.43 µM	1.01 µM	COc1ccc([P+](c2ccc(OC)cc2)(c2cccc3[nH]ccc23)c2cccc3[nH]ncc23)cc1 [AB36498]				1320 nM	6650 nM
9.74 µM	3.32 µM	c1ccc([P+](c2ccccc2)(c2ccccc2)c2cccc3cn[nH]c23)cc1 [AB36511]				4030 nM	13400 nM
3.34 µM	0.52 µM	c1ccc([P+](c2ccccc2)(c2ccccc2)c2cccc3c2ccn3CCN2CCOCC2)cc1 [AB35585]				1220 nM	3540 nM
9.82 µM	2.45 µM	c1ccc([P+](c2ccccc2)(c2ccccc2)c2cccc3[nH]ncc23)cc1 [AB35481]				2500 nM	16700 nM
2.93 µM	0.51 µM	c1ccc([P+](c2ccccc2)(c2ccccc2)c2ccc3c(ccn3CCN3CCOCC3)c2)cc1 [AB35576]				460 nM	1600 nM
1.85 µM	0.18 µM	c1ccc([P+](c2ccccc2)(c2ccc3[nH]ccc3c2)c2ccc3[nH]ccc3n2)cc1 [AB35597]				240 nM	1180 nM
3.86 µM	0.97 µM	c1ccc([P+](c2ccccc2)(c2ccc3cc[nH]c3c2)c2ccc3cn[nH]c3c2)cc1 [AB35538]				1710 nM	5940 nM
19.4 µM	8.11 µM	c1ccc([P+](c2ccccc2)(c2cccnc2)c2ccc3cc[nH]c3c2)cc1 [AB35472]				10700 nM	38400 nM
0.86 µM	0.11 µM	COc1ccc([P+](c2ccccc2)(c2ccccc2)c2cccc3[nH]ccc23)cc1 [AB36513]				380 nM	1960 nM
8.97 µM	3.09 µM	c1ccc([P+](c2ccccc2)(c2ccccc2)c2ccoc2)cc1 [AB36533]				3520 nM	11900 nM
2.34 µM	0.32 µM	c1ccc([P+](c2ccccc2)(c2ccc3cc[nH]c3n2)c2cccc3[nH]ccc23)cc1 [AB35589]				360 nM	1530 nM
1.45 µM	0.36 µM	COc1ccc([P+](c2ccc(OC)cc2)(c2ccc(OC)cc2)c2cccc3[nH]ccc23)cc1 [AB35527]				250 nM	1210 nM
11.8 µM	3.34 µM	c1ccc([P+](c2ccccc2)(c2cnc3cc[nH]c3c2)c2cccc3[nH]ccc23)cc1 [AB35570]				3990 nM	15600 nM
1.21 µM	0.27 µM	c1ccc([P+](c2ccccc2)(c2ccc3cc[nH]c3c2)c2ccc3cc[nH]c3c2)cc1 [AB35437]				300 nM	920 nM
1.35 µM	0.26 µM	c1ccc([P+](c2ccccc2)(c2cccc3[nH]ccc23)c2cccc3cn[nH]c23)cc1 [AB36514]				1190 nM	10200 nM
2.56 µM	0.41 µM	Cn1cc2c([P+](c3ccccc3)(c3ccccc3)c3cccc4c3ccn4C)cccc2n1 [AB35574]				2450 nM	8350 nM
